Earlier results, collected in US10874130B2, “Steviol glycoside solutions” (PureCircle USA Inc., priority 2015, dated 2020).

Conditions: heat and pH

Row | Structure (SMILES) | Stability in carbonated beverages
1 | C=C1C[C@@]23CC[C@H]4[C@@](C)(CCC[C@@]4(C)C(=O)O[C@@H]4O[C@H](CO)[C@@H](O)[C@H](O)[C@H]4O)[C@@H]2CC[C@]1(O[C@@H]1O[C@H](CO)[C@@H](O)[C@H](O)[C@H]1O[C@@H]1O[C@H](CO)[C@@H](O)[C@H](O)[C@H]1O)C3 [stevioside] | heat and pH stability
2 | C=C1C[C@@]23CC[C@H]4[C@@](C)(CCC[C@@]4(C)C(=O)O[C@@H]4O[C@H](CO)[C@@H](O)[C@H](O)[C@H]4O)[C@@H]2CC[C@]1(O[C@@H]1O[C@H](CO)[C@@H](O)[C@H](O[C@@H]2O[C@H](CO)[C@@H](O)[C@H](O)[C@H]2O)[C@H]1O[C@@H]1O[C@H](CO)[C@@H](O)[C@H](O)[C@H]1O)C3 [rebaudioside A] | heat and pH stability
